Values quoted from earlier work in patent EP3933036B1, “PROCESS FOR 7-BETA-HYDROXYLATION OF BILE ACID DERIVATIVES” (MICROMUN Institut für Mikrobiologische Forschung GmbH, priority 2020, dated 2022).

conditions: at 298 K

octanol/water partition coefficient (KOW) | Compound
11 | CCOC(C)=O [ethyl acetate]
2 | C[S+](C)[O-] [DMSO]

Compound | octanol/water partition coefficient (KOW)
CC#N [acetonitrile] | 2
